{"source": "patent US20090280984A1", "about": "“Method of Inhibiting the Growth of Algae” (ITEQ CORPORATION, priority 2008, published 2009)", "test_system": "Microcystis aeruginosa", "assay": "Inhibition of algal growth, detection of Chlorophyll-a content by spectrometry (absorbance at 665 nm after ethanol extraction)", "format": "cell-based", "procedure": "In the following embodiment, three specimens, chitosan, glucosamine, and the combination of both, were used as inhibitors to inhibit algal growth and their inhibition efficiency was tested as well. In this embodiment, one kind of toxic Cyanobacteria, Microcystis aeruginosa, is used for the inhibition test. Since chlorophyll-a content of algae is widely used as an indicator of the abundance of algae in a freshwater body, the chlorophyll-a content of Microcystis aeruginosa in the sample was detected by spectrometry.\nFirst, four 0.5 ml portions of Microcystis aeruginosa solution were obtained and were labeled as sample I, II, III and IV, respectively, and 49.5 ml of Bold's medium was added to each sample. Next, chitosan, glucosamine, and the combination were added to sample II, III and IV, respectively, so that sample II contains 10 ppm chitosan, and sample III contains 10 ppm glucosamine, and sample IV contains 5 ppm chitosan and 5 ppm glucosamine. Sample I without any chitosan and glucosamine added was used as the control. After that, these four samples were cultured for 14 days. During that time, the Chlorophyll-a content of four samples were detected every 7 days according to the procedures mentioned below.\nA portion of each sample was obtained and centrifuged at 10000 rpm at 20° C. for 15 mins, and then the supernatant was poured out. Next, four 10 ml portions of 95% (v/v) ethanol were added to sample I to IV and mixed with the residues. Next, the solution of each sample was water-bathed in 60° C. water for 30 mins to extract Chlorophyll-a. When being bathed in the water, the solution of each sample was shaken every ten minutes. After that, the solutions were centrifuged at 5000 G at 20° C. for 15 minutes and the supernatants were kept. Then, the absorbance at 665 nm of […] were detected. Finally, according to the “Standard Methods for the Examination Chlorophyll-a in Water-Ethanol Extraction” issued by National Institute of Environmental Analysis, Taiwan (NIEA E508.00B), the absorbance at 665 nm of samples I to IV were calibrated and the concentration of Chlorophyll-a content of each sample was calculated by the absorbance measured.\nBasically, the whole process was the same as mentioned above except the concentration of chitosan and glucosamine in samples, and the Chlorophyll-a content was also detected. The concentration of glucosamine and chitosan contained in each sample and the Chlorophyll-a content detected are show in Table 2."}
{"smiles": "N[C@H]1C(O)O[C@H](CO)[C@@H](O)[C@@H]1O", "note": "(stereo partly drawn) [III, glucosamine]", "values": [{"measurement": "Chlorophyll-a Content", "setting": "Embodiment I, 0th day, Microcystis aeruginosa in Bold's medium", "value": 6.9, "unit": "ppb"}, {"measurement": "Chlorophyll-a Content", "setting": "Embodiment I, 7th day, control (sample I) 278 ppb", "value": 33, "unit": "ppb"}, {"measurement": "Chlorophyll-a Content", "setting": "Embodiment I, 14th day, control (sample I) 2470 ppb", "value": 554, "unit": "ppb"}, {"measurement": "Chlorophyll-a Content", "setting": "Embodiment II, 7th day, Blank 62 ppb, original content 9.7 ppb", "value": 50, "unit": "ppb"}, {"measurement": "Chlorophyll-a Content", "setting": "Embodiment II, 14th day, Blank 418 ppb, original content 9.7 ppb", "value": 124, "unit": "ppb"}, {"measurement": "inhibition of the growth of algae (in words)", "setting": "Microcystis aeruginosa, chlorophyll-a as indicator", "value": "could inhibit the growth of algae"}]}
